From ChEMBL document CHEMBL1201862, “PubChem BioAssay data set” (2004)
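96-well plates; 48 h exposure; 5 concentrations. Endpoints by linear interpolation between flanking doses. Not reached: highest tested concentration assigned. Abbreviation: GI50, concentration required for 50% inhibition of growth.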 Activity calls are given as the source filed them. No stated cut-off is given here; in the data, active = GI50 up to about 1.1 µM and inactive = higher. Non-standard residues stand in square brackets, D forms with d. Residues, ends and D or L forms follow the SMILES beside them. *: point of attachment. Cbz = O=C(OCc1ccccc1)*; Boc = CC(C)(C)OC(=O)*; Aib = CC(C)(N)C(=O)O; OBn = c1ccc(CO*)cc1; OtBu = CC(C)(C)O*; βAla = NCCC(=O)O

Legend:
Assay in all cases: NCI tumour cell line growth inhibition, 48 h
SF-295 = system: SF-295
PC-3 = system: PC-3
IGROV-1 = system: IGROV-1
MDA-N = system: MDA-N
MDA-MB-231 = system: MDA-MB-231
SK-MEL-28 = system: SK-MEL-28
COLO 205 = system: COLO 205
NCI-H522 = system: NCI-H522
CAKI-1 = system: CAKI-1
UO-31 = system: UO-31
CCRF-CEM = system: CCRF-CEM
SNB-19 = system: SNB-19
HOP-62 = system: HOP-62
SK-MEL-5 = system: SK-MEL-5
UACC-62 = system: UACC-62
A549 = system: A549
M14 = system: M14
NCI/ADR-RES = system: NCI/ADR-RES
SR = system: SR

Measured: GI50

O=C(NNS(=O)(=O)c1ccccc1)c1cccnc1
inactive: SF-295 > 100 µM | PC-3 > 100 µM | IGROV-1 > 100 µM | MDA-N > 100 µM | MDA-MB-231 > 100 µM | SK-MEL-28 > 100 µM | COLO 205 > 100 µM | NCI-H522 > 100 µM | CAKI-1 > 100 µM | UO-31 > 100 µM | CCRF-CEM 59.7 µM | SNB-19 > 100 µM | HOP-62 > 100 µM | SK-MEL-5 > 100 µM | UACC-62 > 100 µM | A549 > 100 µM | M14 > 100 µM | NCI/ADR-RES > 100 µM

COc1cc(NCCC(=O)O)c2ncccc2c1
inactive: SF-295 > 100 µM | SR > 100 µM | PC-3 > 100 µM | IGROV-1 > 100 µM | MDA-N > 100 µM | MDA-MB-231 > 100 µM | SK-MEL-28 > 100 µM | NCI-H522 > 100 µM | UO-31 > 100 µM | CCRF-CEM > 100 µM | SNB-19 > 100 µM | HOP-62 > 100 µM | SK-MEL-5 > 100 µM | UACC-62 > 100 µM | A549 > 100 µM | M14 > 100 µM | NCI/ADR-RES > 100 µM

CC1=NN(c2cccc(Cl)c2)C2(C1)C(Cl)C(=O)N2c1nc2ccccc2s1 (stereo not drawn)
inactive: SF-295 31.2 µM | SR 15.2 µM | PC-3 22.6 µM | IGROV-1 21.8 µM | MDA-N 29.2 µM | MDA-MB-231 21.5 µM | COLO 205 18 µM | NCI-H522 21.8 µM | CAKI-1 33.1 µM | UO-31 19.3 µM | SNB-19 28.6 µM | HOP-62 25.5 µM | SK-MEL-5 19.4 µM | UACC-62 31.1 µM | A549 25.6 µM | M14 22.5 µM | NCI/ADR-RES 25.4 µM

COC(=O)/C=C(\C)CC/C=C(\C)CCC1OC1(C)C (stereo not drawn)
inactive: SF-295 11.3 µM | SR 8.79 µM | PC-3 8.36 µM | IGROV-1 12.2 µM | MDA-N 11.7 µM | MDA-MB-231 12.1 µM | SK-MEL-28 12.3 µM | COLO 205 15.5 µM | CAKI-1 11.7 µM | UO-31 10.7 µM | CCRF-CEM 4.65 µM | SNB-19 44.7 µM | HOP-62 15.8 µM | SK-MEL-5 11.4 µM | UACC-62 10.1 µM | A549 12.9 µM | M14 12.6 µM | NCI/ADR-RES 13.9 µM

O=C(CC(C(=O)c1cccs1)c1ccc2c(c1)OCO2)c1ccccc1 (stereo not drawn)
inactive: SF-295 > 100 µM | SR 70.1 µM | PC-3 > 100 µM | IGROV-1 > 100 µM | MDA-N > 100 µM | MDA-MB-231 > 100 µM | SK-MEL-28 > 100 µM | COLO 205 > 100 µM | NCI-H522 > 100 µM | CAKI-1 > 100 µM | UO-31 > 100 µM | SNB-19 > 100 µM | HOP-62 > 100 µM | SK-MEL-5 > 100 µM | UACC-62 > 100 µM | A549 > 100 µM | M14 73.8 µM | NCI/ADR-RES > 100 µM

Clc1ccc2c(c1)CC1C[N+]3=C(CCCC3)C1=C2 (stereo not drawn)
inactive: SF-295 28 µM | PC-3 60.5 µM | IGROV-1 > 100 µM | MDA-N > 100 µM | MDA-MB-231 44.8 µM | SK-MEL-28 > 100 µM | COLO 205 58.1 µM | NCI-H522 47.4 µM | CAKI-1 > 100 µM | UO-31 > 100 µM | CCRF-CEM 83 µM | SNB-19 48.3 µM | HOP-62 89.9 µM | SK-MEL-5 50.4 µM | UACC-62 > 100 µM | A549 39.6 µM | M14 53.8 µM | NCI/ADR-RES > 100 µM

CCOc1cc2c(cc1O)CC[C@@H]1[C@@H]2CC[C@]2(C)C(N)CC[C@@H]12 (stereo partly drawn)
inactive: SF-295 3.24 µM | PC-3 2.93 µM | IGROV-1 3.78 µM | MDA-N 1.44 µM | MDA-MB-231 2.12 µM | SK-MEL-28 9.62 µM | COLO 205 4.49 µM | NCI-H522 3.45 µM | CAKI-1 4.22 µM | UO-31 3.54 µM | CCRF-CEM 1.73 µM | SNB-19 4.83 µM | HOP-62 5.94 µM | SK-MEL-5 3.56 µM | UACC-62 3.91 µM | A549 3.3 µM | M14 4.05 µM | NCI/ADR-RES 2.69 µM

COC(=O)/C1=C/C=C\C[C@@]2(C)CC(c3ccoc3)OC(=O)[C@@H]2CC[C@H]1C (stereo partly drawn)
inactive: SF-295 > 25 µM | SR > 25 µM | PC-3 > 25 µM | IGROV-1 > 25 µM | MDA-N > 25 µM | MDA-MB-231 > 25 µM | SK-MEL-28 > 25 µM | COLO 205 > 25 µM | CAKI-1 > 25 µM | UO-31 > 25 µM | CCRF-CEM > 25 µM | SNB-19 > 25 µM | HOP-62 > 25 µM | SK-MEL-5 > 25 µM | UACC-62 > 25 µM | A549 > 25 µM | M14 > 25 µM | NCI/ADR-RES > 25 µM

C=C1[C@@H](OC(C)=O)[C@H]2[C@@H](OC(C)=O)[C@@](C)(OC(C)=O)C[C@]2(OC(C)=O)C(=O)[C@@H](C)/C=C/C(C)(C)C(=O)C[C@H]1OC(C)=O
inactive: SF-295 > 100 µM | PC-3 > 100 µM | IGROV-1 > 100 µM | MDA-N > 100 µM | MDA-MB-231 > 100 µM | SK-MEL-28 > 100 µM | COLO 205 72.3 µM | NCI-H522 45.3 µM | CAKI-1 > 100 µM | UO-31 > 100 µM | CCRF-CEM 60.3 µM | SNB-19 > 100 µM | HOP-62 > 100 µM | SK-MEL-5 > 100 µM | UACC-62 83.8 µM | A549 > 100 µM | M14 > 100 µM | NCI/ADR-RES 88.1 µM

COc1ccc(C(=O)N2CCN(c3ccc4c(c3)OCC(=O)N4)CC2)cc1OC
inactive: SF-295 > 100 µM | SR > 100 µM | PC-3 > 100 µM | IGROV-1 > 100 µM | MDA-N > 100 µM | MDA-MB-231 > 100 µM | SK-MEL-28 > 100 µM | COLO 205 > 100 µM | NCI-H522 71.1 µM | UO-31 > 100 µM | CCRF-CEM > 100 µM | SNB-19 > 100 µM | HOP-62 > 100 µM | SK-MEL-5 > 100 µM | UACC-62 > 100 µM | A549 > 100 µM | M14 > 100 µM | NCI/ADR-RES > 100 µM

O=S(=O)(O)c1ccc(O)c(/N=N/c2c(O)ccc3ccccc23)c1
inactive: SF-295 > 100 µM | PC-3 > 100 µM | IGROV-1 > 100 µM | MDA-N > 100 µM | MDA-MB-231 > 100 µM | SK-MEL-28 > 100 µM | COLO 205 87.3 µM | NCI-H522 > 100 µM | CAKI-1 > 100 µM | UO-31 > 100 µM | CCRF-CEM 36.6 µM | SNB-19 > 100 µM | HOP-62 > 100 µM | SK-MEL-5 > 100 µM | UACC-62 > 100 µM | A549 > 100 µM | M14 > 100 µM | NCI/ADR-RES > 100 µM

CCCCCCCCCCCC[C@@H](O)[C@H]1CC[C@H]([C@H](O)CC[C@H](O)[C@@H]2CC[C@@H](CCCCCCCC3=C[C@H](C)OC3=O)O2)O1
inactive: SF-295 > 12.6 µM | SR 1.27 µM | PC-3 > 50 µM | IGROV-1 > 50 µM | MDA-N 6.47 µM | MDA-MB-231 > 50 µM | SK-MEL-28 > 50 µM | COLO 205 > 50 µM | NCI-H522 46.8 µM | CAKI-1 > 50 µM | UO-31 > 50 µM | CCRF-CEM > 38.4 µM | SNB-19 > 50 µM | HOP-62 > 50 µM | UACC-62 1.53 µM | A549 > 50 µM | M14 > 50 µM | NCI/ADR-RES > 50 µM

O=C(O)CC(Cc1ccccc1Cl)C(=O)O (stereo not drawn)
inactive: SF-295 > 100 µM | PC-3 > 100 µM | IGROV-1 > 100 µM | MDA-N > 100 µM | MDA-MB-231 > 100 µM | SK-MEL-28 > 100 µM | COLO 205 > 100 µM | NCI-H522 > 100 µM | CAKI-1 > 100 µM | UO-31 > 100 µM | CCRF-CEM > 100 µM | SNB-19 > 100 µM | HOP-62 > 100 µM | SK-MEL-5 > 100 µM | UACC-62 > 100 µM | A549 > 100 µM | M14 > 100 µM | NCI/ADR-RES > 100 µM

COc1cc(-c2oc3c(OC)cc(OC)c(O)c3c(=O)c2OC)cc(OC)c1OC
inactive: SF-295 2.59 µM | SR > 100 µM | PC-3 9.57 µM | IGROV-1 85.5 µM | MDA-N > 100 µM | MDA-MB-231 2.84 µM | SK-MEL-28 > 100 µM | COLO 205 > 100 µM | NCI-H522 3.38 µM | CAKI-1 14.4 µM | UO-31 33 µM | SNB-19 3.82 µM | HOP-62 2.06 µM | SK-MEL-5 20.7 µM | UACC-62 23.6 µM | A549 > 100 µM | M14 > 100 µM | NCI/ADR-RES 5.46 µM

CC(C)(C)OC(=O)CC(NC(=O)OC(C)(C)C)C(=O)NC(CCCCNC(=O)OCc1ccccc1)C(=O)NC(C)(C)C(=O)NCCC(=O)OCc1ccccc1 (stereo not drawn) (Boc-D(OtBu)K(Cbz)[Aib][βAla]-OBn; configuration not given here)
inactive: SF-295 > 100 µM | SR > 100 µM | PC-3 > 100 µM | IGROV-1 > 100 µM | MDA-N > 100 µM | MDA-MB-231 > 100 µM | SK-MEL-28 > 100 µM | COLO 205 > 100 µM | NCI-H522 > 100 µM | CAKI-1 > 100 µM | UO-31 > 100 µM | SNB-19 > 100 µM | HOP-62 > 100 µM | SK-MEL-5 > 100 µM | UACC-62 > 100 µM | A549 > 100 µM | M14 > 100 µM | NCI/ADR-RES > 100 µM
